According to ChEMBL document CHEMBL1127749 (J Med Chem, 1994):

Key:
[1] = molecular target: Muscarinic acetylcholine receptor M2 (Mus musculus) (UniProt Q9ERZ4); test: In vivo determination of peripheral M2 receptor mediated tremor, cholinergic side effect
[2] = molecular target: Muscarinic acetylcholine receptor M2 (Mus musculus) (UniProt Q9ERZ4); test: Compound was tested against peripheral M2 receptor mediated cholinergic side effect hypothermia; Very flat dose-response curve with about 50% of maximum response at 350 umol/kg
[3] = molecular target: Muscarinic acetylcholine receptor M2 (Mus musculus) (UniProt Q9ERZ4); test: In vivo determination of peripheral M2 receptor mediated salivation, cholinergic side effect
[4] = molecular target: Muscarinic acetylcholine receptor M2 (Mus musculus) (UniProt Q9ERZ4); test: In vivo determination of peripheral M2 receptor mediated hypothermia, cholinergic side effect

Row | Compound | ED50 [1] | ED50 [2] | ED50 [3] | ED50 [4]
1 | CCn1ncc(C2=CCCN(C)C2)n1 | 180 µmol/kg | 350 µmol/kg | 400 µmol/kg | 
2 | CCN1C(=O)CC2(CCN(C)CC2)C1=O | 38 µmol/kg |  | 2.5 µmol/kg | 8.6 µmol/kg
3 | CN1CCC=C(c2cnn(C)n2)C1 | > 110 µmol/kg |  | 3.6 µmol/kg | 5.3 µmol/kg
4 | C[N+](C)(C)CCOC(N)=O |  |  | 120 µmol/kg | 90 µmol/kg
5 | CCCCn1ncc(C2=CCCN(C)C2)n1 | 72 µmol/kg |  | > 160 µmol/kg | 60 µmol/kg
6 | CCn1ncc(C2=CCCNC2)n1 | 60 µmol/kg |  | 12 µmol/kg | 19 µmol/kg
7 | CCn1nnc(C2=CCCNC2)n1 | > 150 µmol/kg |  | 41 µmol/kg | 78 µmol/kg
